According to US20110256121A1, “METHODS AND KITS FOR DIAGNOSING OR MONITORING AUTOIMMUNE AND CHRONIC INFLAMMATORY DISEASES” (THE REGENTS OF THE UNIVERSITY OF MICHIGAN, priority 2008, published 2011):

Tests used:
Format in all cases: cell-based, human
[1] = test system: CD70-dependent B cell help; assay: T cell and B cell costimulation assay with PWM, IgG ELISA; conditions: 8 days, P<0.05
Protocol: T cell and B cell costimulation assays. E-rosette-purified T cells were stimulated for 16 hours with PHA and then treated with the indicated chemicals for an additional 72 hours as described above. Where indicated, T cell subsets were isolated by negative selection using magnetic beads (Miltenyi). B cells (1-4×10^5) enriched by negative selection using magnetic beads (Miltenyi) and assessed to be 70-85% pure using PE-conjugated anti-human CD21 (PharMingen), were added to washed, drug-treated autologous T cells, at T cell to B cell ratios of 4:1, 2:1, 1:1, 1:2, and 1:4. Where indicated, 0.625 μg/ml of PWM (Aldrich) was added. The cells were cultured in RPMI 1640/10% FBS/penicillin/streptomycin for 8 days in 96-well roundbottomed plates (Costar) containing a 200 μl total volume (performed in duplicate). Cells were supplemented with 50 μl of medium on day 4. […]
IgG enzyme-linked immunosorbent assays (ELISAs). […] Serial dilutions of purified human IgG (Sigma) were used for quantitation. […] The plates were read at 405 nm using a SpectraMax spectrophotometer (Molecular Devices). […]
Since CD70 participates in T cell-dependent B cell stimulation (See e.g., Kobata et al., Proc Natl Acad Sci USA 92, 11249 (1995)), the effects of DNA methylation inhibitors on CD70-dependent B cell help were examined. […] Eight days later, total IgG in the supernatants was measured by ELISA. […]

[2] = test system: CD70 mRNA; assay: CD70 transcripts by real time RT-PCR in anti-CD3 + anti-CD28 stimulated CD4+ T cells; conditions: 5 μm 5-azaC, 50 μm Pca, 20 μm Hyd, 40 μm U0126, 25 μm PD98059, 3 days
Protocol: In other studies, T cells were isolated by negative selection using magnetic beads and instructions provided by the manufacturer (Pan T cell Isolation Kit, Miltenyi), and the CD4+ or CD8+ subset was similarly isolated by magnetic cell sorting. Jurkat cells (E6-1) were cultured as previously described (See, e.g., Cornacchia et al., J Immunol 140:2197 (1998)). Purified human CD4+ T cells were first stimulated with plate bound anti-CD3 and soluble anti-CD28. Briefly, 24 well plates were coated with 300 μl of anti-CD3 (10 μg/ml in PBS—SouthernBiotech) 18 hours 4° C., washed, then 2×10^6 purified T cells were added to the wells in 2 ml RPMI 1640/10% FCS containing 2 μg/ml anti-CD28 (SouthernBiotech). The plates were incubated 37° C. in a humidified atmosphere containing 5% CO2 for 18-24 hours, then treated with 5 μm 5-azaC (Aldrich), 50 μm Pca (Sigma), 20 μm Hyd (Aldrich), 40 μm UO126 (Promega) or 25 μm PD98059 (Promega), and cultured for 3 additional days as described (See, e.g., Oelke et al., Arthritis Rheum 50:1850 (2004)).

[3] = test system: T cell CD70 expression; assay: CD70 expression on PHA-stimulated T cells by flow cytometry; conditions: for CD70 expression on treated vs untreated PHA-stimulated T cells: unfractionated T cells, 3 days, dose-response for procainamide, PD98059, U0126
Protocol: Cells and cell culture. Peripheral blood mononuclear cells (PBMCs) were isolated by density-gradient centrifugation. T cells were then isolated by E-rosetting (See, e.g., Golbus et al., Clin Immunol Immunopathol 46, 129 (1988)). […] Where indicated, the cells were cultured in RPMI 1640/10% fetal calf serum (FCS) supplemented with interleukin-2 (IL-2) (See, e.g., Richardson et al., Clin Immunol Immunopathol 55, 368 (1990)), in round-bottomed 5-ml culture tubes (Falcon). Cells were stimulated with 1 μg/ml of PHA (Remel) for 16 hours, then cultured in 24-well plates at a density of 1×10^6 for an additional 72 hours in the presence of 2-deoxy-5-azaC or 5-azaC (Sigma-Aldrich), procainamide (Sigma-Aldrich), hydralazine (Sigma-Aldrich), or the MEK inhibitors U0126 (Promega) or PD98059 (Promega). In other studies, PHA-stimulated PBMCs were cultured in RPMI 1640/10% FCS and treated with indomethacin, chloroquine, hydrocortisone, and 6-mercaptopurine (6-MP) (all from Sigma-Aldrich). TT48E, a cloned, CD4+, tetanus toxoid-reactive human T cell line, was cultured as previously described (Cornacchia et al., J Immunol 140, 2197 (1988); Richardson et al., Arthritis Rheum 35, 647 (1992)).
Flow cytometric analysis. The following fluorochrome-conjugated monoclonal antibodies were obtained from BD PharMingen (San Diego, Calif.): FITC-conjugated anti-human CD70, CD2, or isotype-matched controls; phycoerythrin (PE)-conjugated anti-CD2, CD4, and CD8; and CyChromeconjugated anti-HLA-DR, CD2, and isotype controls. Staining and multicolor flow cytometric analysis were performed (See, e.g., Hale et al., Cell Immunol 220, 51 (2002)) using saturating concentrations of antibody.
The panel of inhibitors used included 5-azaC, an irreversible DNA methyltransferase inhibitor (See, e.g., Glover and Leyland-Jones, Cancer Treat Rep 71, 959 (1987)) procainamide, a competitive DNA methyltransferase inhibitor (See e.g., Scheinbart et al., J Rheumatol 18, 530 (1991)), and the ERK pathway inhibitors PD98059, U0126, and hydralazine.
Studies were performed examining the effects of the DNA methylation inhibitors on CD70 expression in CD4+ and CD8+ T cell subsets.

Q: Which results are given for `Nc1ncn([C@@H]2O[C@H](CO)[C@@H](O)[C@H]2O)c(=O)n1` [5-azaC, 5-azacytidine]?
A: IgG secreted by B cells cultured with drug-treated T cells vs untreated T cells [1]: secreted greater amounts of IgG; CD70 transcripts relative to β-actin, treated vs untreated [2]: increase CD70 transcripts; increase of CD70 MFI on CD4+ T cells ([3]; 1 μM 5-azaC, n=5, P=0.025): 1.53±0.45 fold; CD70 expression on CD4+ T cells [3]: increased CD70 expression on CD4+ T cells; 5-azaC concentration producing the greatest effect on CD70 expression ([3]; range of 5-azaC concentrations, n=5): 1 µM; CD70 expression on treated vs untreated PHA-stimulated T cells ([3]; 1 μM 5-azaC): small increase

Q: `N#CC(=C(/N)Sc1ccccc1N)/C(C#N)=C(\N)Sc1ccccc1N` [U0126] was tested. Which “IgG secreted by B cells cultured with drug-treated T cells vs untreated T cells” value [1] did it give?
A: secreted greater amounts of IgG

Q: What about the “CD70 transcripts relative to β-actin, treated vs untreated” value [2] of the same compound?
A: increase CD70 transcripts

Q: What about the “increase of CD70 MFI on CD4+ T cells” value ([3]; 40 μM U0126, n=4, P=0.039) of the same compound?
A: 3.20±0.44 fold

Q: What about the “CD70 expression on CD4+ T cells” value [3] of the same compound?
A: increased CD70 expression on CD4+ T cells

Q: What about the “increase of CD70 MFI in T cells treated with U0126 (FIG. 2I)” value ([3]; U0126, P=0.085, stated in the CD8+ context) of the same compound?
A: 2.83±0.95 fold

Q: What about the “CD70 expression on treated vs untreated PHA-stimulated T cells” value ([3]; 1 μM 5-azaC) of the same compound?
A: increase in CD70 expression with treatment
